Data taken from ChEMBL document CHEMBL1857833, “Screening and optimization of specific chemical series against human African Trypanosomiasis (HAT)”.
≈ marks a conversion by molar mass, not a printed value.

Tests used:
[1] = DNDI: Cytotoxicity against L929 mouse fibroblasts, 72 hour.; format: toxicity, cell-based; conditions: mouse, L929 mouse fibroblasts
Trypanosoma brucei = assay: DNDI: Inhibition of Human African Trypanosomiasis, SBRI 427, in vitro; format: functional, organism-based
[2] = Trypanosoma brucei, SBRI 427, read-out: IC50

SMILES | IC50 at 72 h [1] | IC50 (Trypanosoma brucei; [2]) | IC50 (Trypanosoma brucei)
COc1ccc(S(=O)(=O)Nc2ccccn2)cc1 | > 10 µg/mL | > 5 µg/mL | –
COc1ccc(S(=O)(=O)Nc2ccccn2)cc1OC | > 10 µg/mL | > 5 µg/mL | –
CCc1cccc(NS(=O)(=O)c2ccc(OC)cc2)c1 | 1.88 µg/mL (≈ 6.45 µM) | > 5 µg/mL | –
CCCCNCc1coc(-c2ccc(CCCC)cc2)n1 | 2.5 µg/mL (≈ 8.73 µM) | 0.75 µg/mL (≈ 2.62 µM) | –
COc1ccc(CNC(c2nc(Cc3ccccc3)c(N3CCCCC3)o2)C2CCCCC2)cc1OC (stereo not given) | > 10 µg/mL | > 5 µg/mL | –
CCCCc1ccc(-c2nc(CNC(CC)CC)co2)cc1 | 1.83 µg/mL (≈ 6.09 µM) | 0.63 µg/mL (≈ 2.1 µM) | –
CCCCc1ccc(-c2nc(CC)co2)cc1 | 6.2 µg/mL (≈ 27 µM) | > 5 µg/mL | –
CCCCc1ccc(-c2nc(C)c(C)o2)cc1 | 5.21 µg/mL (≈ 22.7 µM) | > 5 µg/mL | –
CC(C)c1ccc(Oc2ncccc2/C(=N\O)NC2CCCCC2)cc1 | 6.75 µg/mL (≈ 19.1 µM) | 0.09 µg/mL (≈ 0.255 µM) | –
CCCCc1ccc(-c2nc(CNC3CCCCC3)co2)cc1 | 1.44 µg/mL (≈ 4.61 µM) | 0.41 µg/mL (≈ 1.31 µM) | –
CCCCCCCCCCOc1ccc(-c2nc(CN[C@@H]3C[C@@H]4C[C@H]([C@H]3C)C4(C)C)co2)cc1 | 7.22 µg/mL (≈ 15.5 µM) | > 5 µg/mL | –
CCCCCC(C)NCc1coc(-c2ccc(CC)cc2)n1 (stereo not given) | 2.61 µg/mL (≈ 8.69 µM) | 1 µg/mL (≈ 3.33 µM) | –
CCCCc1ccc(-c2nc(CNC3CCC3)co2)cc1 | 3.51 µg/mL (≈ 12.3 µM) | 1.3 µg/mL (≈ 4.57 µM) | –
CCCCCCNCc1coc(-c2ccc(CCCC)cc2)n1 | 1.15 µg/mL (≈ 3.66 µM) | 0.37 µg/mL (≈ 1.18 µM) | –
Cc1ccc(/C(=N/O)Nc2cccc(F)c2)c(Oc2c(F)cccc2F)n1 | > 10 µg/mL | 3.75 µg/mL (≈ 10 µM) | –
CCC(C)C(NCc1cccc(C)c1)c1nc(-c2ccccc2)c(N2CCCCC2)o1 (stereo not given) | > 10 µg/mL | > 5 µg/mL | –
CCCCc1ccc(-c2nc(CNCCC)co2)cc1 | 4.29 µg/mL (≈ 15.7 µM) | 0.75 µg/mL (≈ 2.75 µM) | –
COc1ccc(/C(=N/O)Nc2cccc(C(C)C)c2)cc1 | 5.81 µg/mL (≈ 20.4 µM) | 1.41 µg/mL (≈ 4.96 µM) | –
CCc1cccc(NS(=O)(=O)c2ccc(OC)c(OC)c2)c1 | > 10 µg/mL | > 5 µg/mL | –
CCCCc1ccc(-c2nc(-c3cc(-c4ccccc4)no3)co2)cc1 | > 10 µg/mL | > 5 µg/mL | –
COc1ccc(CNC(CC(C)C)c2nc(Cc3ccccc3)c(N3CCCCC3)o2)cc1OC (stereo not given) | > 10 µg/mL | > 5 µg/mL | –
Cc1ccc(/C(=N/O)NC2CCCCC2)c(Oc2cc(Cl)ccc2Cl)n1 | > 10 µg/mL | 1.18 µg/mL (≈ 2.99 µM) | 2.27 µg/mL (≈ 5.76 µM)
CCC(C)C(NCc1ccc(OC)c(OC)c1)c1nc(Cc2ccccc2)c(N2CCCCC2)o1 (stereo not given) | > 10 µg/mL | > 5 µg/mL | –
CCC(C)C(NCc1ccc(C)cc1)c1nc(Cc2ccccc2)c(N2CCCCC2)o1 (stereo not given) | > 10 µg/mL | > 5 µg/mL | –
O/N=C(\NC1CCCCC1)c1cccnc1Oc1cc(Cl)ccc1Cl | > 10 µg/mL | 0.57 µg/mL (≈ 1.5 µM) | –
CCC(C)C(NCc1ccc(OC)c(OC)c1)c1nc(-c2ccccc2)c(N2CCCCC2)o1 (stereo not given) | > 10 µg/mL | > 5 µg/mL | –

SMILES | IC50 at 72 h [1] | IC50 (Trypanosoma brucei; [2]) | IC50 (Trypanosoma brucei)
CCCCCCCCCCOc1ccc(-c2nc(CNC(C)CCCCC)co2)cc1 (stereo not given) | 2.9 µg/mL (≈ 6.77 µM) | 1.35 µg/mL (≈ 3.15 µM) | –
CCCCCNCc1coc(-c2ccc(CCCC)cc2)n1 | 1.64 µg/mL (≈ 5.46 µM) | 0.51 µg/mL (≈ 1.7 µM) | –
CCCCc1ccc(-c2nc(CNC3CCCC3)co2)cc1 | 2.52 µg/mL (≈ 8.44 µM) | 0.83 µg/mL (≈ 2.78 µM) | –
CCCCc1ccc(-c2nc(CNC(C)CCC)co2)cc1 (stereo not given) | 2.03 µg/mL (≈ 6.76 µM) | 0.61 µg/mL (≈ 2.03 µM) | –
CCCCc1ccc(-c2nc(CNC3CC3)co2)cc1 | 7.55 µg/mL (≈ 27.9 µM) | 3.05 µg/mL (≈ 11.3 µM) | –
Cc1ccc(CNC(c2ccccc2)c2nc(-c3ccccc3)c(N3CCCCC3)o2)cc1 (stereo not given) | > 10 µg/mL | > 5 µg/mL | –
CCc1cccc(N/C(=N\O)c2ccc(C)nc2Oc2cc(Cl)ccc2Cl)c1 | 4.7 µg/mL (≈ 11.3 µM) | 3.96 µg/mL (≈ 9.51 µM) | –
Cc1ccc(Oc2ccccc2/C(=N/O)NC2CCCCC2)cc1 | 4.06 µg/mL (≈ 12.5 µM) | 0.27 µg/mL (≈ 0.832 µM) | –
CCCCc1ccc(-c2nc(C(=O)OCC)co2)cc1 | > 10 µg/mL | > 5 µg/mL | –
CCCCCCCCOC(=O)Cc1coc(-c2ccc(CCCC)cc2)n1 | > 10 µg/mL | > 5 µg/mL | –
CCCCc1ccc(-c2nc(CNC(C)c3ccccc3)co2)cc1 (stereo not given) | 3.33 µg/mL (≈ 9.96 µM) | 0.87 µg/mL (≈ 2.6 µM) | –
COc1ccc(S(=O)(=O)NC2CCCCC2)cc1 | > 10 µg/mL | > 5 µg/mL | –
COc1ccc(S(=O)(=O)NC2CCCCC2)cc1OC | > 10 µg/mL | > 5 µg/mL | –
CCCCc1ccc(-c2nc(CNCCc3ccccc3)co2)cc1 | 2.3 µg/mL (≈ 6.88 µM) | 0.69 µg/mL (≈ 2.06 µM) | –
CCC(C)C(NCc1ccc(C)cc1)c1nc(-c2ccccc2)c(N2CCCCC2)o1 (stereo not given) | > 10 µg/mL | > 5 µg/mL | –
CCCCc1ccc(-c2nc(C)c(C(C)=O)o2)cc1 | > 10 µg/mL | > 5 µg/mL | –
C[C@@H]1[C@H]2C[C@@H](C[C@H]1NCc1coc(-c3ccc(OC4CCCCC4)cc3)n1)C2(C)C | 1.59 µg/mL (≈ 3.89 µM) | 0.57 µg/mL (≈ 1.4 µM) | –
CCC(C)C(NCC(C)C)c1nc(Cc2ccccc2)c(N2CCCCC2)o1 (stereo not given) | > 10 µg/mL | > 5 µg/mL | –
CCCCc1ccc(-c2nc(CN[C@H](C)c3ccccc3)co2)cc1 | 3.32 µg/mL (≈ 9.93 µM) | 2.98 µg/mL (≈ 8.91 µM) | –
CCCCc1ccc(-c2nc(CNCc3ccccc3)co2)cc1 | 3.29 µg/mL (≈ 10.3 µM) | 1.32 µg/mL (≈ 4.12 µM) | –
CCCCc1ccc(-c2nc(-c3ccccc3)c(C)o2)cc1 | > 10 µg/mL | > 5 µg/mL | –
COc1ccccc1Oc1ncccc1/C(N)=N\O | > 10 µg/mL | > 5 µg/mL | –
O/N=C(\Nc1cccc(F)c1)c1cccnc1Oc1cc(Cl)ccc1Cl | 7.69 µg/mL (≈ 19.6 µM) | > 5 µg/mL | –
CCCCc1ccc(-c2nc(-c3ccc(OC)cc3)co2)cc1 | > 10 µg/mL | > 5 µg/mL | –
CCCCc1ccc(-c2nc(-c3ccc4ccccc4c3)co2)cc1 | > 10 µg/mL | > 5 µg/mL | –
CCC(C)C(NCc1ccccc1OC)c1nc(Cc2ccccc2)c(N2CCCCC2)o1 (stereo not given) | > 10 µg/mL | > 5 µg/mL | –
